Test results reported in patent US20120277281A1, “POLYNUCLEOTIDES FOR MEDICAL USE” (MAX-DELBRÜCK-CENTRUM FÜR MOLEKULARE MEDIZIN, priority 2009, published 2012).

B1: rhCSF-1: recombinant human CSF-1 (216-MC, R&D Systems) (protein)
chain: EEVSEYCSHMIGSGHLQSLQRLIDSQMETSCQITFEFVDQEQLKDPVCYLKKAFLLVQDIMEDTMRFRDNTPNAIAIVQLQELSLRLKSCFTKDYEEHDKACVRTFYETPLQLLEKVKNVFNETKNLLDKDWNIFSKNCNNSFAECSSQDVVTKPDCN

How the values were obtained:
CSF1R [1] = assay: rhCSF1-induced CSF1R tyrosine phosphorylation in DEL cells (IP, immunoblot); type: cell-based, human; conditions: preincubation with CSF1R:Fc
Procedure: FIG. 9. (A) Analysis of CSF1 mRNA expression by Northern blot in various cell lines, as indicated. Expression of GAPDH was analyzed as a control. Note, that Hodgkin cell lines overexpress two splice variants compared to control cell lines Reh, Namalwa and BL60, which lack CSF1 expression. (B) To test the functionality of the decoy-receptor-like CSF1R:Fc inhibitor, anaplastic large cell lymphoma derived DEL cells, which show an abundant CSF1R expression (Mathas, S. et al., PNAS 106, 5831-5836 (2009)), were left untreated or stimulated with rhCSF1 with or without preincubation with CSF1R:Fc or the respective IgG1:Fc control. Thereafter, IP was performed with a CSF1R-specific antibody or the respective isotype control (IC), and CSF1R tyrosine phosphorylation was detected by immunoblot with antibody to phospho-tyrosine (p-Tyr; upper panel). As a control, the membrane was reprobed with antibody to CSF1R (lower panel). Note, that CSF1R:Fc prevents rhCSF-1 induced CSF1R phosphorylation.

KM-H2 cells = assay: [3H]-thymidine incorporation in KM-H2 cells after CSF-1 inhibition; type: cell-based, human; conditions: 80 μg/ml, pulsed after 24 h
Procedure: (§1) FIG. 3. HRS cells depend on CSF1R activity. (A) L540Cy cells were left untreated (−) or treated with the indicated amounts rhCSF-1 (closed bars) or the respective control (open bars) under serum reduced conditions (1% FCS). After 48 hours, cells were pulsed with 1 μCi [^3H]-thymidine per well for a further 20 hours, and [^3H]-thymidine incorporation was determined cpm, counts per minute. Data are represented as mean±SD. (3A) [^3H]-thymidine incorporation in L540Cy cells left untreated (−) or treated with the indicated amounts of rhCSF-1 (black bars) or water control (open bars) under serum-reduced conditions (1% FCS) determined after 48 h. Data are represented as means±s.d. […] After 24 hours, cells were pulsed with [^3H]-thymidine incorporation and analyzed as described in (A). […] CSF1R tyrosine phosphorylation was analyzed as described in FIG. 1F. […]
(§2) DNA synthesis was determined by [^3H]-thymidine incorporation assays using standard protocols. The percentage of viable and apoptotic cells was determined by annexin V-FITC/propidium iodide (PI) double-staining (Bender MedSystems) and subsequent FACS analysis.
(§3) We determined DNA synthesis by [^3H]-thymidine incorporation assays using standard protocols. In case of L540Cy cells (FIG. 1d), after 48 hours, cells were pulsed with 1 μCi [^3H]-thymidine per well for a further 20 hours, and [^3H]-thymidine incorporation was determined. […]

L540Cy cells = assay: [3H]-thymidine incorporation in L540Cy cells; type: cell-based, human; conditions: 1% FCS, 48 h
Procedure: as §1, §2, §3

CSF1R [2] = molecular target: T1, CSF1R (Homo sapiens, UniProt P07333); assay: CSF1R tyrosine phosphorylation in L540Cy cells (CSF1R IP, p-Tyr western blot); type: cell-based; conditions: L540Cy cells stimulated with rhCSF-1
T1 construct: endogenous in cells; host or cells: L540Cy (Hodgkin/Reed-Sternberg cell line)
Procedure: FIG. 1. Lineage-inappropriate expression of functional CSF1R and CSF-1 in Hodgkin lymphoma cells. Analysis of CSF1R and CSF-1 protein expression and of CSF1R:Fc functionality. (A) Analysis of CSF1R and CSF1 mRNA expression by RT-PCR in Hodgkin and non-Hodgkin cell lines. Expression of GAPDH was analyzed as a control. (1a) Analysis of CSF1R and CSF1 mRNA expression by RT-PCR in Hodgkin's and non-Hodgkin's cell lines. GAPDH expression was analyzed as a control. One representative of four independent experiments is shown. (B, C) Analysis of CSF1R (B) and CSF-1 (C) protein expression in various cell lines by extracellular and intracellular flow cytometry, respectively. IC, isotype control. (D) Supernatants of various cell lines were analyzed by a CSF-1-specific ELISA. […] CSF1R tyrosine phosphorylation was detected by WB with an antibody recognizing phospho-tyrosine (p-Tyr; upper panel). […] CSF1R tyrosine phosphorylation was detected by western blotting with an antibody recognizing phosphotyrosine (p-Tyr; top). […]
FIG. 3. […] After 48 hours, cells were pulsed with 1 μCi [^3H]-thymidine per well for a further 20 hours, and [^3H]-thymidine incorporation was determined cpm, counts per minute. […] (3A) [^3H]-thymidine incorporation in L540Cy cells left untreated (−) or treated with the indicated amounts of rhCSF-1 (black bars) or water control (open bars) under serum-reduced conditions (1% FCS) determined after 48 h. […]

T1 sequence (P07333 20-972): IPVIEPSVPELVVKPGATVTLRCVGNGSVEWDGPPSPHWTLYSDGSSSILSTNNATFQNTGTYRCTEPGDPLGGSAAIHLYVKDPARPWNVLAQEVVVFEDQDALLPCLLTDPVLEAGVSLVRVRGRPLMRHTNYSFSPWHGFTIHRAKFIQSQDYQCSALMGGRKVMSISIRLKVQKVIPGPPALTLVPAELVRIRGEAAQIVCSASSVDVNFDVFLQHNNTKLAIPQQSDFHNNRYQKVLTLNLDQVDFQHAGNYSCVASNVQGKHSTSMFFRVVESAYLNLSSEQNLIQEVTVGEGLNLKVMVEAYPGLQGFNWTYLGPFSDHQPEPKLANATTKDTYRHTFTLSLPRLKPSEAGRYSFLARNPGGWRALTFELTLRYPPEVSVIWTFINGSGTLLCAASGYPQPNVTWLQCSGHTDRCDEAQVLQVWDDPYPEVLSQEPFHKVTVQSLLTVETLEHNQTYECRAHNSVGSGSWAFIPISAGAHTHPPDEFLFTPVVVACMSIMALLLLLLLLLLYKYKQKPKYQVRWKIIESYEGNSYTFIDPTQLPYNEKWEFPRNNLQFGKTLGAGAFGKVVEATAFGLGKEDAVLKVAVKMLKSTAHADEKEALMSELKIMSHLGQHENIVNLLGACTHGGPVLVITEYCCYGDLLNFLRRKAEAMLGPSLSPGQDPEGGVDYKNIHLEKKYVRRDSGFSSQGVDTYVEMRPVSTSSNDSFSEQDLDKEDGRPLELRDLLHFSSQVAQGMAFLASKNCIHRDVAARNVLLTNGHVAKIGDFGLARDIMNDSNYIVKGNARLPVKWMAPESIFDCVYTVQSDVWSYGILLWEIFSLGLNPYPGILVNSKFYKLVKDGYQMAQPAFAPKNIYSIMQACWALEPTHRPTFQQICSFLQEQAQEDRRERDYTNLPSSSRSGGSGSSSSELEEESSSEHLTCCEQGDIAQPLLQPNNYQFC

Row | Molecule | rhCSF-1 induced CSF1R phosphorylation (CSF1R [1]) | [3H]-thymidine incorporation (KM-H2 cells) | proliferation ([3H]-thymidine incorporation) (L540Cy cells) | CSF1R tyrosine phosphorylation following stimulation (CSF1R [2])
1 | CSF1R:Fc: decoy-receptor-like inhibitor that binds to and neutralizes CSF-1 (329-MR, R&D Systems) | prevents | strong reduction |  | 
2 | B1 |  |  | induced proliferation in a dose-dependent manner | rapid increase
